Mutagenic call data for five compounds are collected here from PubChem BioAssay AID1259407 (Chemical Carcinogenesis Research Information System (CCRIS), 2018).

Active and inactive are the calls of the source. The rule behind the calls is not given here.

The series relates to CCRIS mutagenicity, Ames/micronucleus/aberration tests. As to the kind of experiment: CCRIS mutagenicity studies.
Setting [1] is: Test System: AMES SALMONELLA TYPHIMURIUM, Strain/Indicator: TA98, Metabolic Activation: NONE, Method: PREINCUBATION
[2] abbreviates: Test System: AMES SALMONELLA TYPHIMURIUM, Strain/Indicator: TA100, Metabolic Activation: NONE, Method: PREINCUBATION
[3] abbreviates: Test System: AMES SALMONELLA TYPHIMURIUM, Strain/Indicator: TA102, Metabolic Activation: NONE, Method: PREINCUBATION

In the case of `O=S(=O)(O)OOS(=O)(=O)O`, the mutagenic call runs as follows: (Test System: AMES SALMONELLA TYPHIMURIUM, Strain/Indicator: TA97, Metabolic Activation: NONE, Method: PREINCUBATION) “inactive; negative”; (Test System: AMES SALMONELLA TYPHIMURIUM, Strain/Indicator: TA97, Metabolic Activation: RAT, LIVER, S-9, AROCLOR 1254, Method: PREINCUBATION) “inactive; negative”; under setting [1], “inactive; negative”; (Test System: AMES SALMONELLA TYPHIMURIUM, Strain/Indicator: TA98, Metabolic Activation: RAT, LIVER, S-9, KC 500, Method: PREINCUBATION) “inactive; negative”; under setting [2], “inactive; negative”; (Test System: AMES SALMONELLA TYPHIMURIUM, Strain/Indicator: TA100, Metabolic Activation: RAT, LIVER, S-9, KC 500, Method: PREINCUBATION) “inactive; negative”. Further, the mutagenic call by setting is: under setting [3], “inactive; negative”; (Test System: AMES SALMONELLA TYPHIMURIUM, Strain/Indicator: TA102, Metabolic Activation: RAT, LIVER, S-9, AROCLOR 1254, Method: PREINCUBATION) “inactive; negative”; (Test System: AMES SALMONELLA TYPHIMURIUM, Strain/Indicator: TA1535, Metabolic Activation: NONE, Method: PREINCUBATION) “inactive; negative”; (Test System: AMES SALMONELLA TYPHIMURIUM, Strain/Indicator: TA1535, Metabolic Activation: RAT, LIVER, S-9, KC 500, Method: PREINCUBATION) “inactive; negative”; (Test System: AMES SALMONELLA TYPHIMURIUM, Strain/Indicator: TA1537, Metabolic Activation: NONE, Method: PREINCUBATION) “inactive; negative”; (Test System: AMES SALMONELLA TYPHIMURIUM, Strain/Indicator: TA1537, Metabolic Activation: RAT, LIVER, S-9, KC 500, Method: PREINCUBATION) “inactive; negative”. Besides, the mutagenic call is “inactive; negative” (Test System: AMES SALMONELLA TYPHIMURIUM, Strain/Indicator: TA1538, Metabolic Activation: NONE, Method: PREINCUBATION); “inactive; negative” (Test System: AMES SALMONELLA TYPHIMURIUM, Strain/Indicator: TA1538, Metabolic Activation: RAT, LIVER, S-9, KC 500, Method: PREINCUBATION); “inactive; negative” (Test System: E. COLI, Strain/Indicator: WP2 UVRA, Metabolic Activation: NONE, Method: PREINCUBATION); “inactive; negative” (Test System: E. COLI, Strain/Indicator: WP2 UVRA, Metabolic Activation: RAT, LIVER, S-9, KC 500, Method: PREINCUBATION).

As for `C=CCNC(N)=O`, the mutagenic call reads like this: (Test System: AMES SALMONELLA TYPHIMURIUM, Strain/Indicator: TA98, Metabolic Activation: HAMSTER, LIVER, S-9, AROCLOR 1254 (30%), Method: PREINCUBATION) “inactive; negative”; under setting [1], “inactive; negative”; (Test System: AMES SALMONELLA TYPHIMURIUM, Strain/Indicator: TA100, Metabolic Activation: HAMSTER, LIVER, S-9, AROCLOR 1254 (5, 10 OR 30%), Method: PREINCUBATION) “inactive; negative”; under setting [2], “inactive; negative”; (Test System: AMES SALMONELLA TYPHIMURIUM, Strain/Indicator: TA100, Metabolic Activation: RAT, LIVER, S-9, AROCLOR 1254 (30%), Method: PREINCUBATION) “inactive; negative”; (Test System: AMES SALMONELLA TYPHIMURIUM, Strain/Indicator: TA1535, Metabolic Activation: HAMSTER, LIVER, S-9, AROCLOR 1254 (5 OR 10%), Method: PREINCUBATION) “inactive; negative”. Also, the mutagenic call (Test System: AMES SALMONELLA TYPHIMURIUM, Strain/Indicator: TA1535, Metabolic Activation: HAMSTER, LIVER, S-9, AROCLOR 1254 (30%), Method: PREINCUBATION) was “active; positive”.

As to `Nc1cccc([N+](=O)[O-])c1CO`, the mutagenic call is “inactive; negative” under setting [1]; “inactive; negative” (Test System: AMES SALMONELLA TYPHIMURIUM, Strain/Indicator: TA98, Metabolic Activation: RAT, LIVER, S-9, PHENOBARBITAL AND 5,6-BENZOFLAVONE, Method: PREINCUBATION); “inactive; negative” under setting [2]; “inactive; negative” (Test System: AMES SALMONELLA TYPHIMURIUM, Strain/Indicator: TA100, Metabolic Activation: RAT, LIVER, S-9, PHENOBARBITAL AND 5,6-BENZOFLAVONE, Method: PREINCUBATION).

In the case of `Cc1c(N)nc(C(CC(N)=O)NCC(N)C(N)=O)nc1C(=O)NC(C(=O)NC(C)C(O)C(C)C(=O)NC(C(=O)NCCc1nc(-c2nc(C(=O)O)cs2)cs1)C(C)O)C(OC1OC(CO)C(O)C(O)C1OC1OC(CO)C(O)C(OC(N)=O)C1O)c1cnc[nH]1` (configuration not stated), under setting [3], the mutagenic call was “inactive; negative”.

With `Cc1cc2c(C(C)C)c(O)c(O)c(C=O)c2c(O)c1-c1c(C)cc2c(C(C)C)c(O)c(O)c(C=O)c2c1O`, the mutagenic call (Test System: AMES SALMONELLA TYPHIMURIUM, Strain/Indicator: TA98, Metabolic Activation: NONE, Method: STANDARD PLATE) is “inactive; negative”; the mutagenic call (Test System: AMES SALMONELLA TYPHIMURIUM, Strain/Indicator: TA98, Metabolic Activation: RAT, LIVER, S-9, AROCLOR 1254 OR PHENOBARBITAL, Method: STANDARD PLATE) was “inactive; negative”; the mutagenic call (Test System: AMES SALMONELLA TYPHIMURIUM, Strain/Indicator: TA100, Metabolic Activation: NONE, Method: STANDARD PLATE) is “inactive; negative”; the mutagenic call (Test System: AMES SALMONELLA TYPHIMURIUM, Strain/Indicator: TA100, Metabolic Activation: RAT, LIVER, S-9, AROCLOR 1254 OR PHENOBARBITAL, Method: STANDARD PLATE) is “inactive; negative”.
